According to patent US8465983B1, “Detection and delivery systems utilizing supported lipid bilayers” (priority 2005, dated 2013):

Columns and labels:
[1] = tested on: anionic phospholipids; assay: Affinity of PLA2 for anionic phospholipids (Kim et al.); type: binding
[2] = tested on: anionic phospholipids; details: Kim et al. 1997; cited from earlier work
[3] = tested on: cholesterol (10%, molar ratio) containing lipid membrane on porous particles; assay: Release of dye from porous particles coated with cholesterol-containing lipid membrane by streptolysin-O; type: biochemical; details: even at low concentrations; 25° C. and 37° C.
Description: FIGS. 22A-B illustrate one aspect of the invention—drug and/or dye release from the present lipid-coated particles. FIG. 22A is a graph showing release of dye from porous particles (containing dye inside) where the particles are coated with a cholesterol (10%, molar ratio) containing lipid membrane. As increasing amounts of streptolysin-O are added (solid square symbols represent lower concentration than solid ovals), more dye is released. […] FIG. 22B illustrates how streptolysin-O can disrupt cholesterol-containing lipid bilayer membranes, leading to release of materials (e.g., drugs or antibiotics) enclosed within the membrane. Streptolysin-O is an anti-microbial protein that preferably binds to cholesterol and can disrupt cholesterol-containing membranes.

[4] = Superquenching of MS-PPE by AQS, flow cytometry; details: 10 μM AQS, 2.5×10^5 MS-PPE in 200 μL PBS
Description: Bead suspensions of 2.5×10^5 PPE-coated microspheres in 200 μL PBS were analyzed using a FACScan flow cytometer (Becton-Dickinson, Sunnyvale, Calif.) with excitation at 488 nm. Fluorescence signals were acquired on the FL-1 channel (525 nm) using log amplification and analyzed with the CellQuest software.
The effect of the quencher, AQS, on the fluorescence of MS-PPE was determined by adding different concentrations of AQS and immediately reading the fluorescence by flow cytometry (FIG. 14A) or by fluorimetry (FIG. 14B). Adding AQS to the suspension of MS-PPE decreased the fluorescence emission intensity in an AQS-concentration-dependent manner (FIGS. 14A and B). The quenching of the MS-PPE as detected by both fluorimetry and flow cytometry, could be described by a conventional Stern-Volmer equation: Io/I=1+KSV[Q] where Io and I represent the fluorescence intensities in the absence and in presence of the AQS, and KSV is the Stern-Volmer quenching constant. However, the fluorimeter was not sensitive enough to detect the lower fluorescence (higher quenching) when AQS was added to MS-PPE at concentrations higher than 5 μM. The values of KSV obtained by flow cytometry and fluorimetry were 0.78×10^6 M^−1, and 0.79×10^6 M^−1, respectively. The correlation coefficient for the more sensitive flow cytometry was higher than that obtained by fluorimetry. […]

[5] = tested on: DMPG lipid bilayer supported on MS-PPE; assay: Superquenching flow cytometric assay for disruption of DMPG lipid bilayer supported on MS-PPE; type: biochemical; details: 10 μM AQS, no disruptor, real-time kinetics
Description: Lipid bilayers were disrupted by adding TRITON X-100 detergent to the bead suspension to a final concentration of 0.25% (w/v).
Bead suspensions of 2.5×10^5 DMPG-coated MS-PPE in 200 μL of PBS were analyzed using a FACScan flow cytometer (Becton-Dickinson, Sunnyvale, Calif.) with excitation at 488 nm. Fluorescence signals were acquired on FL-1 channel (525 nm) using log amplification and analyzed with the CellQuest software. Kinetic analysis of disruption of supported lipid bilayer by melittin was performed by acquiring real-time data with continuous mixing of samples (10^6 MS-PPE in 800 μl of PBS) using a magnetic stirrer. The raw data were analyzed using IDL Query software developed by Bruce Edwards (Cancer Center, University of New Mexico, Albuquerque, N. Mex.).
Because an anionic lipid was used to form a lipid bilayer around MS-PPE, it was expected that MLT will disrupt the DMPG lipid bilayer by such a detergent-like action. This was tested by adding 10 μM AQS to DMPG-coated MS-PPE followed by treatment with one of the following: TRITON X-100 detergent, synthetic MLT (sMLT), or natural MLT (nMLT) and immediately reading the fluorescence by flow cytometry. […] These histograms resemble the ones reported previously for MS-PPE, without a lipid coating, in absence and in presence of AQS.
From FIG. 18, the association constant (corresponding to the reciprocal of the point of half saturation) for nMLT and sMLT with DMPG were 5×10^6 M^−1 and 1.7×10^6 M^−1, respectively. […] Lower concentrations of nMLT, in comparison to sMLT, were required to disrupt the DMPG lipid bilayer. This might be attributed to the fact that nMLT contains some phospholipase A2 (PLA2) as a contaminant. PLA2 has a high affinity for anionic phospholipids, with an association constant of 0.5×10^10 M^−1 (Kim et al., Anal. Chem. 250, 109-116 (1997)), which is about 3000 fold higher than that of MLT. Although PLA2 activity requires calcium, which is not present in the experimental system, it has been reported that even upon addition of EDTA to natural MLT, PLA2 maintains its activity, probably due to formation of a tight complex with calcium with PLA2 (Dempsey, C. E. Biochim. Biophys. Acta 1990, 1031, 143-161).
The kinetics of disruption of supported lipid bilayer by MLT were monitored by measuring real-time changes in fluorescence intensity by flow cytometry (FIG. 19). Suspensions of 10^6 DMPG-coated MS-PPE in 800 μL of PBS were treated with AQS at a final concentration of 10 μM, then with either sMLT, TRITON X-100 detergent, or no treatment. […] Treatment with sMLT in the absence of AQS led to an increase in normalized fluorescence (FIG. 19, trace A). This can be attributed to disruption of the lipid bilayer by sMLT, and is consistent with a reversal of the slight quenching of fluorescence caused by the formation of a DMPG lipid bilayer over MS-PPE. Addition of AQS alone to DMPG-coated MS-PPE (FIG. 19, trace C) led to a 20% reduction in fluorescence as reported earlier. Addition of TRITON X-100 detergent to DMPG-coated MS-PPE after the addition of AQS (first dip in trace E, FIG. 19) caused immediate decrease in fluorescence to ˜10% of its original value (second dip in trace E, FIG. 19). In contrast, addition of sMLT, after the addition of AQS, (FIG. 19, trace D) led to a gradual reduction of fluorescence intensity to ˜20% of the original value. Although MLT forms dimers at high concentrations (Dempsey, C. E. Biochim. Biophys. Acta 1990, 1031, 143-161), it is monomeric at the concentrations used in this study. On the other hand, TRITON X-100 detergent forms micelles at the concentration used in this study.

PLA2: phospholipase A2, lipolytic enzyme, contaminant of natural melittin
association constant higher than that of MLT [1]: about 3000 fold | association constant [2]: 5e+09 M⁻¹

streptolysin-O: anti-microbial protein that preferably binds to cholesterol and can disrupt cholesterol-containing membranes
release of dye compared with control without streptolysin-O [3]: greater than observed for control

O=C1c2ccc(S(=O)(=O)O)cc2C(=O)c2ccc(S(=O)(=O)O)cc21 [AQS, 9,10-anthraquinone-2,6-disulfonic acid]
reduction in fluorescence (normalized mean channel fluorescence) [4]: 90% | reduction in fluorescence of DMPG-coated MS-PPE on addition of AQS alone [5]: 20%
